Test results taken from PubChem BioAssay AID248 (DTP/NCI, 2004).
Inconclusive results and toxic doses are left out. No stated cut-off is given here; in the data, active means T/C of 150% or more; inactive means T/C below 125%.

Tested on: L1210 leukemia ip in BDF1 mice, survival T/C
Test: NCI In Vivo Anticancer Drug Screen. Data for tumor model L1210 Leukemia (intraperitoneal) in B6D2F1 (BDF1) mice
Conditions: endpoint: mean survival time, higher = longer survival
Method in brief: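 Mice bearing the transplanted tumor received compound or vehicle. Survival of the treated group was divided by that of the vehicle-treated control group to give the ratio.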

[1] = dose: 50.0 mg/kg/injection, schedule: Q01DX001 (ip), vehicle: Klucel (hydroxypropylcellulose) (HPC)
[2] = dose: 100.0 mg/kg/injection, schedule: Q01DX001 (ip), vehicle: carboxymethylcellulose (CMC)
[3] = dose: 200.0 mg/kg/injection, schedule: Q01DX001 (ip), vehicle: carboxymethylcellulose (CMC)
[4] = dose: 400.0 mg/kg/injection, schedule: Q01DX001 (ip), vehicle: carboxymethylcellulose (CMC)
[5] = dose: 50.0 mg/kg/injection, schedule: Q01DX001 (ip), vehicle: saline
[6] = dose: 100.0 mg/kg/injection, schedule: Q01DX001 (ip), vehicle: saline
[7] = dose: 100.0 mg/kg/injection, schedule: Q04DX003 (ip), vehicle: Klucel (hydroxypropylcellulose) (HPC)
[8] = dose: 200.0 mg/kg/injection, schedule: Q04DX003 (ip), vehicle: Klucel (hydroxypropylcellulose) (HPC)
[9] = dose: 400.0 mg/kg/injection, schedule: Q04DX003 (ip), vehicle: Klucel (hydroxypropylcellulose) (HPC)
[10] = dose: 100.0 mg/kg/injection, schedule: Q01DX009 (ip), vehicle: saline with Tween-80
[11] = dose: 200.0 mg/kg/injection, schedule: Q01DX009 (ip), vehicle: saline with Tween-80
[12] = dose: 400.0 mg/kg/injection, schedule: Q01DX009 (ip), vehicle: saline with Tween-80
[13] = dose: 100.0 mg/kg/injection, schedule: Q01DX001 (ip), vehicle: Klucel (hydroxypropylcellulose) (HPC)
[14] = dose: 200.0 mg/kg/injection, schedule: Q01DX001 (ip), vehicle: Klucel (hydroxypropylcellulose) (HPC)

Measured: T/C

O=C(O)C1C(C(=O)O)C2(Cl)C(Cl)=C(Cl)C1(Cl)C2(Cl)Cl.[Cu+2] (stereo not given)
inactive: dose: 25.0 mg/kg/injection, schedule: Q01DX001 (ip), vehicle: Klucel (hydroxypropylcellulose) (HPC) 92 % of control | [1] 97 % of control | dose: 50.0 mg/kg/injection, schedule: Q01DX009 (ip), vehicle: saline sonified 95 % of control

CC(NC(=O)OC(C)(C)C)C(=O)O (stereo not given)
inactive: [2] 104 % of control | [3] 104 % of control | [4] 104 % of control

CC(=O)NC(CSSCC(NC(C)=O)C(=O)OC(C)=O)C(=O)O (stereo not given)
inactive: dose: 25.0 mg/kg/injection, schedule: Q01DX001 (ip), vehicle: saline 102 % of control | [5] 96 % of control | [6] 93 % of control

COC(=O)c1cc(=O)c2c(=O)[nH]c(=O)[nH]c2[nH]1
inactive: [7] 101 % of control | [8] 95 % of control | [9] 100 % of control

COc1ccc(C(=O)N/N=C/c2ccc(C)cc2)cc1
inactive: dose: 100.0 mg/kg/injection, schedule: Q01DX009 (ip), vehicle: Klucel (hydroxypropylcellulose) (HPC) 102 % of control | dose: 200.0 mg/kg/injection, schedule: Q01DX009 (ip), vehicle: Klucel (hydroxypropylcellulose) (HPC) 102 % of control | dose: 400.0 mg/kg/injection, schedule: Q01DX009 (ip), vehicle: Klucel (hydroxypropylcellulose) (HPC) 105 % of control

O=C(O)/C=C\c1cccc([N+](=O)[O-])c1
inactive: dose: 100.0 mg/kg/injection, schedule: Q04DX003 (ip), vehicle: saline with Tween-80 92 % of control | dose: 200.0 mg/kg/injection, schedule: Q04DX003 (ip), vehicle: saline with Tween-80 93 % of control | dose: 400.0 mg/kg/injection, schedule: Q04DX003 (ip), vehicle: saline with Tween-80 92 % of control

CC(=O)Nc1ccccc1C(=O)O
inactive: [10] 100 % of control | [11] 97 % of control | [12] 100 % of control

CC(=O)Nc1cc(Cl)cc2c1-c1c(Cl)cc(Cl)cc1C2=O
inactive: dose: 100.0 mg/kg/injection, schedule: Q01DX009 (ip), vehicle: saline 98 % of control | [7] 94 % of control | [8] 94 % of control | [9] 91 % of control

CN(C)c1ccc(I)cc1
inactive: dose: 25.0 mg/kg/injection, schedule: Q01DX001 (ip), vehicle: saline with Tween-80 107 % of control | dose: 50.0 mg/kg/injection, schedule: Q01DX001 (ip), vehicle: saline with Tween-80 110 % of control

CC(C)OC(=S)SCC(=O)c1ccc([N+](=O)[O-])cc1
inactive: dose: 100.0 mg/kg/injection, schedule: Q04DX002 (ip), vehicle: Klucel (hydroxypropylcellulose) (HPC) 112 % of control | dose: 200.0 mg/kg/injection, schedule: Q04DX002 (ip), vehicle: Klucel (hydroxypropylcellulose) (HPC) 102 % of control | dose: 400.0 mg/kg/injection, schedule: Q04DX002 (ip), vehicle: Klucel (hydroxypropylcellulose) (HPC) 105 % of control

CCN(CC)CCN(C)c1cc(C)nc(/N=C(\N)Nc2ccc(Cl)c(Cl)c2)n1
inactive: dose: 18.75 mg/kg/injection, schedule: Q01DX009 (ip), vehicle: saline with Tween-80 92 % of control | dose: 37.5 mg/kg/injection, schedule: Q01DX009 (ip), vehicle: saline with Tween-80 103 % of control | dose: 37.5 mg/kg/injection, schedule: Q04DX003 (ip), vehicle: saline with Tween-80 93 % of control | dose: 75.0 mg/kg/injection, schedule: Q01DX009 (ip), vehicle: saline with Tween-80 92 % of control | dose: 75.0 mg/kg/injection, schedule: Q04DX003 (ip), vehicle: saline with Tween-80 97 % of control

Brc1cccc2nc(/C=C\c3ccccc3)ccc12
inactive: dose: 100.0 mg/kg/injection, schedule: Q01DX001 (ip), vehicle: other 98 % of control | dose: 200.0 mg/kg/injection, schedule: Q01DX001 (ip), vehicle: other 95 % of control | dose: 400.0 mg/kg/injection, schedule: Q01DX001 (ip), vehicle: other 89 % of control

Clc1ccc(/C=N/Nc2nnc(N/N=C/c3ccc(Cl)cc3)c3ccccc23)cc1
inactive: [5] 95 % of control | [6] 101 % of control | dose: 200.0 mg/kg/injection, schedule: Q01DX001 (ip), vehicle: saline 101 % of control | dose: 400.0 mg/kg/injection, schedule: Q01DX001 (ip), vehicle: saline 95 % of control

O=C(/C=C/C(=O)c1ccc(Cl)cc1)c1ccc(Cl)cc1
inactive: dose: 100.0 mg/kg/injection, schedule: Q01DX009 (ip), vehicle: gum acacia 95 % of control | dose: 100.0 mg/kg/injection, schedule: Q04DX003 (ip), vehicle: gum acacia 97 % of control | dose: 200.0 mg/kg/injection, schedule: Q01DX009 (ip), vehicle: gum acacia 95 % of control | dose: 200.0 mg/kg/injection, schedule: Q04DX003 (ip), vehicle: gum acacia 95 % of control | dose: 400.0 mg/kg/injection, schedule: Q01DX009 (ip), vehicle: gum acacia 101 % of control | dose: 400.0 mg/kg/injection, schedule: Q04DX003 (ip), vehicle: gum acacia 95 % of control

O=C(COc1cccc(Cl)c1Cl)NCc1ccc(Cl)cc1
inactive: [10] 100 % of control | [11] 97 % of control | [12] 96 % of control

O=C1OCC(C(=O)c2ccccc2)C1=Nc1ccccc1O (stereo not given)
inactive: dose: 50.0 mg/kg/injection, schedule: Q01DX001 (ip), vehicle: carboxymethylcellulose (CMC) 94 % of control | [2] 100 % of control | [3] 100 % of control | [4] 92 % of control

Cc1ccc2ccc3ccc4ccccc4c3c2c1
inactive: [1] 101 % of control | [13] 95 % of control | [14] 101 % of control

Cc1ccc(S(=O)(=O)Nc2ccccc2)c(C(O)(c2ccccc2)c2ccccc2)c1
inactive: [10] 91 % of control | [11] 96 % of control | [12] 93 % of control

O=C(COc1ccc(Cl)cc1Cl)Nc1ccc(NC(=O)COc2ccc(Cl)cc2Cl)cc1
inactive: dose: 12.5 mg/kg/injection, schedule: Q01DX009 (ip), vehicle: Klucel (hydroxypropylcellulose) (HPC) 87 % of control | dose: 12.5 mg/kg/injection, schedule: Q04DX002 (ip), vehicle: Klucel (hydroxypropylcellulose) (HPC) 95 % of control | dose: 25.0 mg/kg/injection, schedule: Q01DX009 (ip), vehicle: Klucel (hydroxypropylcellulose) (HPC) 94 % of control | dose: 25.0 mg/kg/injection, schedule: Q04DX002 (ip), vehicle: Klucel (hydroxypropylcellulose) (HPC) 95 % of control | dose: 50.0 mg/kg/injection, schedule: Q01DX009 (ip), vehicle: Klucel (hydroxypropylcellulose) (HPC) 87 % of control | dose: 50.0 mg/kg/injection, schedule: Q04DX002 (ip), vehicle: Klucel (hydroxypropylcellulose) (HPC) 92 % of control

COc1ccc(-n2c(=O)c(N=Nc3ccccc3C)c(O)n(-c3ccc(C)cc3)c2=S)cc1
inactive: [13] 95 % of control | [14] 97 % of control | dose: 400.0 mg/kg/injection, schedule: Q01DX001 (ip), vehicle: Klucel (hydroxypropylcellulose) (HPC) 97 % of control
